Source: ChEMBL document CHEMBL1201862, “PubChem BioAssay data set” (2004)
The source made the active and inactive calls.

What was measured:
[1] = viability of uninfected HEp-2 cells – cell-based, HTS, cytotoxicity control for RSV inhibitor project, dose response (AID 2410); assay type: functional; details: human respiratory syncytial virus
[2] = cells
[3] = toxicity toward HepG2 liver cells – cell-based, plate reader, cherry-pick, antagonist series, cytotoxicity control, dose response (AID 743416); assay type: functional
[4] = blockers of bursicon-stimulated LGR2 cAMP reporter – cell-based, HEK293, CRE-luciferase reporter, cherry pick, set 2, dose response (AID 743343); assay type: functional;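 further: transfected cells were stimulated with diluted bursicon conditioned medium after compound addition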
[5] = blockade of melanocortin 4 receptor signaling – cell-based, plate reader, cherry pick, counter-screen for LGR2 antagonist project, dose response (AID 743444); assay type: functional;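 further: transfected HEK 293 cells stimulated with alpha-MSH peptide; potency of inhibitors of the alpha-MSH evoked signal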
[6] = system: Vero; experiment: cells; assay type: functional, cell-based; details: Chlorocebus sabaeus
[7] = viability loss in CEM21 cells – cell-based, CellTiter-Glo luminescence, cherry-picked, cytotoxicity control for viral fusion inhibitor project, dose response (AID 652042); assay type: functional;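 further: potency for signal decrease meaning cytotoxicity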
[8] = off-target signal loss in HeLa-CEM21 co-culture – HeLa F-luc CTL cells, cherry-picked, counter-screen for HIV-1 Env fusion inhibitor project, dose response (AID 652040); assay type: functional, cell-based;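 further: potency for signal decrease marking cytotoxic or nonspecific inhibition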
[9] = HIV-1 AD8 envelope cell-cell fusion blockers – cherry-pick, dose response (AID 652062); assay type: functional, cell-based;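 further: luciferase signal from cell-cell fusion driven by HIV-1 clade B AD8 Env; potency is for inhibitors of fusion seen as a drop in luminescence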
[10] = system: BJ; experiment: BJ-TERT fibroblast viability loss – cell-based, RAS-independent, luminescence, dose response (AID 1933); assay type: functional; details: Homo sapiens
[11] = DRD fibroblast viability loss – cell-based, non-viral oncogenic, luminescence, dose response (AID 1934); assay type: functional; details: Homo sapiens
[12] = system: BJ; experiment: cells; assay type: functional, cell-based; details: Homo sapiens
[13] = system: Vero; experiment: cells; assay type: functional; details: Chlorocebus sabaeus
[14] = system: BJ; experiment: BJ-TERT-LT-ST fibroblast viability loss – cell-based, RAS-independent, luminescence, dose response (AID 1935); assay type: functional; details: Homo sapiens;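 further: BJ fibroblasts immortalized with TERT plus LT and ST oncogenes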
[15] = blockers of HIV-1 envelope-mediated cell-cell fusion – cherry-pick, dose response (AID 652057); assay type: functional, cell-based
[16] = blockers of HIV-1 ZM109 envelope-driven cell-cell fusion – HeLa effector, CEM target cells, luciferase, cherry-pick, dose response (AID 652058); assay type: functional, cell-based;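 further: luciferase signal from HIV-1 Env mediated cell-cell fusion of effector and target cells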
[17] = A549 cell cytotoxicity, dose response, cytotoxicity control, plate reader, cherry-pick, antagonist series (AID 743412); assay type: functional, cell-based
[18] = viability loss in HEK293 cells – cell-based, plate reader, cherry-picked samples, cytotoxicity control, dose response (AID 743446); assay type: functional
[19] = intracellular Trypanosoma cruzi inhibitors in host cells – cell-based, plate reader, cherry-pick samples, set 3, dose response (AID 651818); assay type: functional;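 further: compounds incubated with infected cells for about four days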
[20] = molecular target: Paired box protein Pax-8 (Homo sapiens, UniProt Q06710); experiment: PAX8 transcriptional activity inhibition in RMG-I – RMG-I cells, luciferase, cherry-pick, dose response (AID 687027); assay type: functional, cell-based;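 further: luciferase reporter driven by Pax8 target thyroperoxidase promoter measured by SteadyGlo luminescence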
[21] = OVCAR8 cell viability loss – plate reader, dry powder samples, PAX8 project, dose response (AID 743197); assay type: functional, cell-based; details: OVCAR-8

Paired box protein Pax-8, sequence (Q06710 whole entry): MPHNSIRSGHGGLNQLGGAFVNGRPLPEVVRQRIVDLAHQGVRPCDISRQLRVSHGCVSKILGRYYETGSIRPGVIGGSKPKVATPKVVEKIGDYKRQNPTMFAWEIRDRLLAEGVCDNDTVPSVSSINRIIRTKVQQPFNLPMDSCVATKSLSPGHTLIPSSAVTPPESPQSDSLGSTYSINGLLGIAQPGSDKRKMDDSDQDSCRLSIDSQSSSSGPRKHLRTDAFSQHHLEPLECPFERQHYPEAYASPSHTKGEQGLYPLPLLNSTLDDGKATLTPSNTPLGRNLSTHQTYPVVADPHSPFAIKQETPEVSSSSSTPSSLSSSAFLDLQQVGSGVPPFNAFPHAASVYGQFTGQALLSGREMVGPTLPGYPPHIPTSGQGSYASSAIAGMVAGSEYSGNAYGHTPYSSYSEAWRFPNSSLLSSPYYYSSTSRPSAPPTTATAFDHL

With `COc1cccc(CNC(=O)c2cc3oc4ccccc4c3n2C)c1OC` as the compound, how does the CC50 [1] read?
The CC50 was 11.7 µM (active).

And the IC50 [2]?
Its IC50 is 4.72 µM (active).

Which AC50 [3] does the source give for `CCC(=O)Nc1cc2nn(-c3ccc(OC)cc3)nc2cc1C` here?
The AC50 was > 52 µM (inactive).

And the AC50 [4]?
Its AC50 is 3.64 µM (active).

And the AC50 [5]?
Its AC50 is 2.52 µM (active).

Which IC50 [2] does the source give for `COC(=O)C1=C(C)N(Cc2ccccc2)C(=O)N[C@H]1c1ccc(Br)cc1` here?
Its IC50 is 4.43 µM (active).

For `Cc1ccc(-c2nn(-c3ccccc3)cc2C2CC(c3cccs3)=NN2C(=O)CCCC(=O)O)cc1` (stereo not drawn), which CC50 [1] is on record?
Its CC50 is > 50 µM (active).

What about the IC50 [2] of the same compound?
Its IC50 is 36.9 µM (active).

For `CC(=O)Nc1nnc(SCC(=O)c2ccc3c(c2)Cc2ccccc2-3)s1`, which CC50 [1] is on record?
The CC50 was 45.6 µM (active).

And the IC50 [6]?
Its IC50 is 10.9 µM (active).

What about the IC50 [2] of the same compound?
Its IC50 is 36 µM (active).

For `CC(C)(C)C(=O)Nc1sc(-c2ccccc2)cc1C(=O)O`, which CC50 [1] is on record?
Its CC50 is 17.9 µM (active).

And the IC50 [6]?
Its IC50 is 24.1 µM (active).

And the IC50 [2]?
The IC50 was 14.3 µM (active).

Which results are given for `COc1ccccc1S(=O)(=O)Cc1ccc(C(=O)N2CCN(c3cccc(Cl)c3)CC2)o1`?
AC50 [7]: 17.1 µM (active); AC50 [8]: > 70 µM (inactive); AC50 [9]: 43 µM (active)

For `Cc1ccc(-n2c(SCC(=O)Nc3ncc(Cl)cc3Cl)nc3ccccc32)cc1`, which CC50 [1] is on record?
The CC50 was 2.33 µM (active).

What about the IC50 [6] of the same compound?
Its IC50 is 0.72 µM (active).

What about the EC50 [10] of the same compound?
Its EC50 is 115 µM (active).

What about the EC50 [11] of the same compound?
Its EC50 is 30.6 µM (inconclusive).

And the EC50 [12]?
Its EC50 is 64.6 µM (active).

What about the CC50 [13] of the same compound?
Its CC50 is > 25 µM (active).

What about the EC50 [14] of the same compound?
Its EC50 is > 150 µM (not active).

And the IC50 [2]?
Its IC50 is 1.1 µM (active).

Which results are given for `NC(Cc1ccc(F)cc1)c1csc(Nc2ccc(C(F)(F)F)cn2)n1` (stereo not drawn)?
AC50 [7]: 9.3 µM (active); AC50 [15]: 10 µM (active); AC50 [8]: 9.07 µM (active); AC50 [16]: 7.7 µM (active)

For `CSCCC(c1nnnn1-c1c(C)cccc1C)N1CCC(n2c(O)nc3ccccc32)CC1` (stereo not drawn), which AC50 [17] is on record?
The AC50 was 18.3 µM (active).

And the AC50 [3]?
Its AC50 is 36.5 µM (active).

What about the AC50 [4] of the same compound?
Its AC50 is 16.5 µM (active).

And the AC50 [5]?
The AC50 was 20.5 µM (active).

What about the AC50 [18] of the same compound?
The AC50 was 22.4 µM (active).

With `C[C@@H]1CN([C@H](C)CO)C(=O)c2cccc(NC(=O)Nc3ccc(C(F)(F)F)cc3)c2O[C@H]1CN(C)Cc1ccc2c(c1)OCO2` as the compound, how does the AC50 [19] read?
The AC50 was 1.82 µM (active).

With `C[C@H](CO)N1C[C@H](C)[C@H](CN(C)Cc2ccc(C(=O)Nc3ccccc3N)cc2)Oc2ccc(NC(=O)Nc3ccc4c(c3)OCO4)cc2C1=O` as the compound, how does the AC50 [19] read?
Its AC50 is 3.55 µM (active).

With `CCCNC(=O)Nc1ccc2c(c1)OC[C@H](C)N(Cc1ccc(-c3ccccn3)cc1)C[C@@H](C)[C@@H](OC)CN(C)C2=O` as the compound, how does the AC50 [20] read?
The AC50 was 32.9 µM (active).

What about the AC50 [21] of the same compound?
Its AC50 is > 70 µM (inactive).

Which AC50 [7] does the source give for `CCOC1=C2[C@H](c3ccccc3)N(S(=O)(=O)c3ccc(C)cc3)[C@H](C(C)C)[C@H]2C(C#N)(C#N)C(C#N)(C#N)C1` here?
Its AC50 is 6.07 µM (active).

What about the AC50 [15] of the same compound?
Its AC50 is 0.734 µM (active).

What about the AC50 [8] of the same compound?
The AC50 was 1.7 µM (active).

What about the AC50 [16] of the same compound?
The AC50 was 2.05 µM (active).

And the AC50 [9]?
Its AC50 is 3.08 µM (active).

Which results are given for `Nc1ccn(C2OC(CO)C(O)C2F)c(=O)n1` (stereo not drawn)?
AC50 [7]: 33.2 µM (active); AC50 [15]: 16.3 µM (active); AC50 [8]: > 70 µM (inactive); AC50 [16]: 6.52 µM (active); AC50 [9]: 2.98 µM (active)
